Experimental findings from ChEMBL document CHEMBL3525927, “Measurement of unbound drug exposure in brain: modeling of pH partitioning explains diverging results between the brain slice and brain homogenate methods” (Drug Metab Dispos, 2011) are described below.

Data set [1] is described as follows: in vivo. The settings on record: Sprague-Dawley, rat.
Data set [2] can be described thus: in vitro. The settings on record: Sprague-Dawley, rat, brain homogenate.
A short description of data set [3]: physchem.
Description: Dissociation constant, pKa of the acidic compound by capillary electrophoresis-mass spectrometry analysis
Data set [4] deals with Brain. The settings on record: rat, 5 h, 0.1 µM.
Description: Unbound volume of distribution in Sprague-Dawley rat brain slices at 100 nM after 5 hrs
A short description of data set [5]: Dissociation constant, pKa of the basic compound by capillary electrophoresis-mass spectrometry analysis. Type of data set: physicochemical.

Molecules are shown by their SMILES.

The term fraction unbound denotes the share of the substance not bound to proteins or other matrix. Read a low fraction unbound as little free substance. Broadly, the pKa is the pH at which an ionisable group is half protonated. The low end stands for a stronger acid or weaker base, the high end for a weaker acid or stronger base. In the case of `CCn1cc(C(=O)O)c(=O)c2cc(F)c(N3CCNCC3)cc21` [NORFLOXACIN], the Kp uu in data set [1] (brain) was determined as 1.66. The fraction unbound at 5 µM in data set [2] turned out to be 0.58. Also, the pKa in data set [3] came to 8.7; in data set [5], 4.4. In data set [4] (in vivo), this compound had a Vdu of 2.9 mL/g.

Take `COc1cccc(C2(O)CCCCC2CN(C)C)c1` (stereo unspecified) [TRAMADOL]: the Kp uu in data set [1] (brain) is 2.25. Further, the unbound share (fraction unbound) at 5 µM in data set [2] is 0.53. The compound also had a pKa in data set [3] of 9.7. This compound also returned a Vdu in data set [4] (in vivo) of 4.2 mL/g.

For `C[C@H]1COc2c(N3CCN(C)CC3)c(F)cc3c(=O)c(C(=O)O)cn1c23.C[C@H]1COc2c(N3CCN(C)CC3)c(F)cc3c(=O)c(C(=O)O)cn1c23.O` [LEVOFLOXACIN], the Kp uu in data set [1] (brain and plasma) was determined as 1.44. In data set [2], the fraction unbound at 5 µM worked out at 0.84. The compound also had a Vdu in data set [4] of 1.7 mL/g.

As to `Clc1cccc(Cl)c1N=C1NCCN1` [CLONIDINE], the Kp uu in data set [1] (brain) was found to be 2.47. The same compound showed an unbound share (fraction unbound) at 5 µM in data set [2] of 0.42. Moreover, the pKa in data set [3] was 8.3. Further, the Vdu in data set [4] (in vivo) stood at 5.9 mL/g.

`CN(Cc1cnc2nc(N)nc(N)c2n1)c1ccc(C(=O)N[C@@H](CCC(=O)O)C(=O)O)cc1` [METHOTREXATE]: in data set [1] (brain), the Kp uu worked out at 0.61. The compound also displayed a fraction unbound at 5 µM in data set [2] of 0.89. Further, the Vdu in data set [4] (in vivo) is 0.68 mL/g.

On to `Cc1nnc2n1-c1ccc(Cl)cc1C(c1ccccc1)=NC2` [ALPRAZOLAM], for which, in data set [2], the free fraction (fraction unbound) at 5 µM was found to be 0.16. The compound also registered a Vdu in data set [4] of 6.5 mL/g.

The compound `C=C[C@H]1C[N@@]2CC[C@H]1C[C@@H]2[C@@H](O)c1ccnc2ccc(OC)cc12` [QUINIDINE] showed a Kp uu in data set [1] (brain) of 3.45.

In the case of `CC(C)(C)NCC(O)COc1cccc2c1CC(O)C(O)C2` (stereo unspecified) [NADOLOL], in data set [3], the pKa came out at 9.9.

`O=C(O)c1ccccc1O` [SALICYLIC ACID] displayed a Kp uu in data set [1] (brain) of 0.62. In data set [2], this compound displayed an unbound share (fraction unbound) at 5 µM of 0.63. This compound returned a Vdu in data set [4] (in vivo) of 1 mL/g.

Compound `COc1ccc2c3c1O[C@H]1[C@@H](O)C=C[C@H]4[C@@H](C2)N(C)CC[C@@]341` [CODEINE] gave a Kp uu in data set [1] (brain) of 1.99. Besides, the fraction unbound at 5 µM in data set [2] amounted to 0.62. For the same compound, the pKa in data set [3] came out at 8.4. This compound also displayed a Vdu in data set [4] (in vivo) of 3.2 mL/g.

In data set [1] (brain and plasma), `CN1CC[C@]23c4c5ccc(O)c4O[C@H]2C(=O)CC[C@@]3(O)[C@H]1C5` [OXYMORPHONE] had a Kp uu of 2.97. The compound further yielded a fraction unbound at 5 µM in data set [2] of 0.75. In addition, in data set [3], the pKa turned out to be 8.7. The compound also returned a Vdu in data set [4] of 4 mL/g.

In data set [1] (brain and plasma), `Cc1ncc2n1-c1ccc(Cl)cc1C(c1ccccc1F)=NC2` [MIDAZOLAM] yielded a Kp uu of 0.74. In data set [2], this compound displayed a free fraction (fraction unbound) at 5 µM of 0.026. This compound showed a pKa in data set [3] of 5.4. The compound further showed a Vdu in data set [4] of 29 mL/g.

In data set [5], `CCCC(C)C1(CC)C(=O)NC(=S)NC1=O` (stereo unspecified) [THIOPENTAL] had a pKa of 7.6.

As to `O=C(O)c1cc(/N=N/c2ccc(S(=O)(=O)Nc3ccccn3)cc2)ccc1O` [SULFASALAZINE], the pKa in data set [5] came to 2.

On to `CO[C@H]1/C=C/O[C@@]2(C)Oc3c(C)c(O)c4c(O)c(c(/C=N/N5CCN(C)CC5)c(O)c4c3C2=O)NC(=O)/C(C)=C\C=C\[C@H](C)[C@H](O)[C@@H](C)[C@@H](O)[C@@H](C)[C@H](OC(C)=O)[C@@H]1C` [RIFAMPIN], for which the pKa in data set [3] stood at 7.6; in data set [5], 2.2.

The compound `CSc1ccc2c(c1)N(CCC1CCCCN1C)c1ccccc1S2` (stereo unspecified) [THIORIDAZINE] showed a Kp uu in data set [1] (brain) of 2.24. In addition, the unbound share (fraction unbound) at 5 µM in data set [2] is 0.00067. In data set [3], this compound had a pKa of 8.9. For the same compound, the Vdu in data set [4] (in vivo) was determined as 3333 mL/g.

For the compound `C=CCc1ccccc1OCC(O)CNC(C)C` (stereo unspecified) [ALPRENOLOL], the Kp uu in data set [1] (brain) is 2.83. In addition, the fraction unbound at 5 µM in data set [2] amounted to 0.057. The Vdu in data set [4] (in vivo) came out at 50 mL/g.

The compound `C=C[C@H]1C[N@@]2CC[C@H]1C[C@H]2[C@H](O)c1ccnc2ccc(OC)cc12` [QUININE] came in with a Kp uu in data set [1] (brain) of 3.51.

`CC(NC(C)(C)C)C(=O)c1cccc(Cl)c1` (stereo unspecified) [BUPROPION]: in data set [1] (brain and plasma), the Kp uu worked out at 2.66. The same compound displayed a pKa in data set [3] of 8.6. Also, the Vdu in data set [4] was 16 mL/g.

As to `Nc1nnc(-c2cccc(Cl)c2Cl)c(N)n1` [LAMOTRIGINE], the Kp uu in data set [1] (brain) was 0.96. The compound also returned a fraction unbound at 5 µM in data set [2] of 0.21. In addition, the Vdu in data set [4] (in vivo) worked out at 4.6 mL/g.

In the case of `CC(C)Nc1cccnc1N1CCN(C(=O)c2cc3cc(NS(C)(=O)=O)ccc3[nH]2)CC1` [DELAVIRDINE], in data set [1] (brain), the Kp uu stood at 0.86. In data set [2], this compound returned a fraction unbound at 5 µM of 0.022. Also, the pKa in data set [3] was 4.5. In data set [4] (in vivo), this compound displayed a Vdu of 40 mL/g.

The compound `CN(C)CCC=C1c2ccccc2CCc2ccccc21` [AMITRIPTYLINE] showed a Kp uu in data set [1] (brain and plasma) of 3.08. The compound also yielded a fraction unbound at 5 µM in data set [2] of 0.01. The compound further had a pKa in data set [3] of 9.5. The Vdu in data set [4] (in vivo) is 310 mL/g.

As for `CC(=O)O[C@H]1C(=O)[C@@]2(C)[C@H]([C@H](OC(=O)c3ccccc3)[C@]3(O)C[C@H](OC(=O)[C@H](O)[C@@H](NC(=O)c4ccccc4)c4ccccc4)C(C)=C1C3(C)C)[C@]1(OC(C)=O)CO[C@@H]1C[C@@H]2O` [PACLITAXEL], the Kp uu in data set [1] (brain and plasma) stood at 9.03. This compound also gave a fraction unbound at 5 µM in data set [2] of 0.012. The Vdu in data set [4] amounted to 769 mL/g.

Take `C=CCOc1ccccc1OCC(O)CNC(C)C` (stereo unspecified) [OXPRENOLOL]: the Kp uu in data set [1] (brain) was 3.25. Moreover, in data set [2], the fraction unbound at 5 µM is 0.28. This compound also gave a pKa in data set [3] of 9.7. In data set [4] (in vivo), this compound had a Vdu of 11.8 mL/g.

Take `CN/C(=N/CCSCc1nc[nH]c1C)NC#N` [CIMETIDINE]: in data set [1] (brain), the Kp uu was found to be 1.73. This compound also returned a free fraction (fraction unbound) at 5 µM in data set [2] of 0.76. The pKa in data set [3] amounted to 7. Besides, the Vdu in data set [4] (in vivo) was 2.3 mL/g.

As for `CN1CC[C@]23c4c5ccc(O[C@@H]6O[C@H](C(=O)O)[C@@H](O)[C@H](O)[C@H]6O)c4O[C@H]2[C@@H](O)C=C[C@H]3[C@H]1C5` [MORPHINE 3-GLUCURONIDE], in data set [1] (brain and plasma), the Kp uu came out at 0.58. In data set [2], this compound returned an unbound share (fraction unbound) at 5 µM of 0.97. Also, the Vdu in data set [4] came to 0.6 mL/g.

`O=C(O)Cc1ccccc1Nc1c(Cl)cccc1Cl` [DICLOFENAC]: the Kp uu in data set [1] (brain and plasma) amounted to 0.61. In addition, in data set [2], the free fraction (fraction unbound) at 5 µM amounted to 0.041. In data set [4], the Vdu came to 15 mL/g.

Turning to `Nc1c2c(nc3ccccc13)CCCC2` [TACRINE], the fraction unbound at 5 µM in data set [2] was determined as 0.16. The compound further gave a Vdu in data set [4] (in vivo) of 22 mL/g.

With `CC(C)NCC(O)COc1cccc2[nH]ccc12` (stereo unspecified) [PINDOLOL], the Kp uu in data set [1] (brain) is 2.89. Further, the fraction unbound at 5 µM in data set [2] turned out to be 0.4.

Turning to `CCNC(=O)C(C(N)=O)c1ccccc1` (stereo unspecified), in data set [1] (brain), the Kp uu turned out to be 0.6. In addition, the unbound share (fraction unbound) at 5 µM in data set [2] stood at 0.65. The compound also had a Vdu in data set [4] (in vivo) of 0.93 mL/g.

Regarding `NCC1(CC(=O)O)CCCCC1` [GABAPENTIN], the Kp uu in data set [1] (brain and plasma) amounted to 4.55. The figures for the pKa in data set [3] and in data set [5] were 10.5 and 3.9, respectively. The Vdu in data set [4] was 4.6 mL/g.

`O=C1OC2(c3ccc(O)cc3Oc3cc(O)ccc32)c2ccccc21` [FLUORESCEIN] displayed a Kp uu in data set [1] (brain and plasma) of 0.74. The compound further registered a free fraction (fraction unbound) at 5 µM in data set [2] of 0.42. In data set [4] (in vivo), this compound showed a Vdu of 1.8 mL/g.

In data set [1] (brain and plasma), `CC1(C)O[C@@H]2[C@@H](CO[C@@]3(COS(N)(=O)=O)OC(C)(C)O[C@@H]23)O1` [TOPIRAMATE] yielded a Kp uu of 1.96. In data set [2], this compound came in with a fraction unbound at 5 µM of 0.61. In addition, in data set [4], the Vdu turned out to be 3.2 mL/g.

Consider `NC12CC3CC(CC(C3)C1)C2` [AMANTADINE], for which, in data set [1] (brain), the Kp uu worked out at 2.83. For the same compound, the fraction unbound at 5 µM in data set [2] was 0.29. This compound came in with a Vdu in data set [4] (in vivo) of 9.9 mL/g.
